According to patent US8637050B2, “Peptide vaccines against group A streptococci” (The United States of America, as represented by the …, priority 2001, dated 2014):
No end group written: not given here.

How the values were obtained:
[1] = test system: rabbit sera prepared against whole M protein; assay: ELISA: peptide recognition by anti-M protein rabbit sera; type: binding; conditions: for immunoreactivity of peptide with anti-M protein rabbit sera (ELISA): rabbit sera against whole M protein of the respective serotype
Method: Overlapping peptides representing each M type were assessed for their immunogenicity using ELISA and dot-immunoblot.
(§1) Levels of anti-M protein antibodies in mouse sera were determined by an enzyme-linked immunosorbent assay (ELISA) using either synthetic peptides or whole M protein as antigen. Microtiter plates (DYNEX Immulon 2 HB) were coated with 10 μg/ml antigen in 10 mM phosphate-buffered saline (PBS) at 4° C. overnight. Plates were rinsed three times with wash buffer (0.05% Tween 20 in 10 mM PBS, pH 7.2) and blocked with 1% BSA in PBS for one hour at 37° C. The appropriate test sera were applied at a starting dilution of 1:1000 and serially diluted two fold down the plate in PBS. Plates were incubated at 37° C. for 30 minutes and subsequently rinsed three times. Goat anti-rabbit or goat anti-mouse Ig-peroxidase conjugate diluted 1:10,000 in PBS was added to all wells and incubated for two hours at 37° C. Plates were rinsed three times with wash buffer and freshly prepared TMB peroxidase (Kirkegaard and Perry Laboratories) was added. Reactions were quenched with 0.18 M H2SO4 after 30 minutes at room temperature and OD450 was measured with a Labsystems Multiskan plate reader using Ascent software. ELISA titers are expressed as the reciprocal of the last dilution which gave a reading OD450>0.10.
The immunoreactivity of several synthetic peptides was determined by ELISA using rabbit sera prepared against whole M protein. The synthetic peptides are representative of relatively small portions of the M protein N-terminus; therefore, it was advantageous to determine if the epitopes contained within particular peptides were immunoreactive with sera prepared against whole M protein. It was shown that the whole anti-M protein rabbit sera of the respective serotypes could bind to each of the synthetic peptides within that serotype. However, some peptides were more highly immunoreactive than others, thus being better suited for use in the animal studies.

[2] = test system: anti-M protein antibodies in mouse sera; assay: ELISA of sera of mice immunized s.c. with peptide in alum (immunogenicity); type: in vivo, mice (Swiss Webster)
Method: as §1
(§2) Mice (6 week old female Swiss Webster, Harley-Sprague) were immunized subcutaneously (s.c.) with either the peptide in alum or alum alone for control groups. Peptides were rotated in the alum mixture for 2 hours at 4° C. and stored at 4° C. overnight prior to use.

streptococci (GAS) = assay: Nasopharyngeal colonization challenge in vaccinated mice; type: in vivo; conditions: vaccinated mice relative to alum-only control mice; nasal wash 24 hours after 10^4 CFU challenge
Method: as §2
(§3) Mice were challenged intranasally one week after the final booster injection was administered. Prior to being challenged, mice were anesthetized with a ketamine/xylazine mixture. Mice were then given 10^4-10^5 CFU (10 μl) of streptococci intranasally via a microliter pipette. They were sacrificed 24 hours after the challenge and the nasopharyngeal passages were washed with approximately 100 μl physiological saline which was collected and immediately placed on ice. Dilutions of the wash were then plated on trypticase soy agar plates (5% sheep blood) and incubated at 37° C. for 18 hours to quantitate viable organisms. Nasopharyngeal colonization in immunized mice was compared to non-immunized controls. Statistical analysis of the NP data was accomplished using the t-test and rank sum test.
Nasopharyngeal (NP) colonization challenge experiments were performed on mice vaccinated (s.c.) with either M3-1 or M3-2 peptide in alum in comparison to control animals which received alum only. The nasopharyngeal colonization challenge was performed by doing a nasal wash 24 hours after challenge. […]

GAS M type M3 or M43 = assay: Reduction of colonization in mice, colonizing GAS M type M3 or M43; type: in vivo
Method: as §2, §3
Some of the peptides were tested for reduction of colonization of GAS in mice. […] The peptides were administered together but were not chemically combined in any way. […] Some of the mice were colonized by M3, and some of the mice were colonized by M43.

GAS M type M43 = assay: Opsonophagocytosis / bactericidal activity in vitro, heterologous GAS M type M43; type: cell-based, Group A streptococci; conditions: for reduction of M43 type bacteria: in vitro versus control; for % CFU reduction: in vitro, heterologous GAS M type M43
Method: (§4) Opsonophagocytosis assays were performed as previously described in Lancefield, R. C., Persistence of type-specific antibodies in man following infection with group A streptococci, 1959, J. Immunol., 89:307. Briefly, diluted serum (50 μl) was added to mid-log phase GAS (10^3 CFU) in Todd-Hewitt broth (50 μl) and whole, heparinized blood (500 μl) from a nonopsonic human donor. Mixtures were briefly vortexed and placed at 37° C. in a shaker for 3 hours. Dilutions were then plated on trypticase soy agar plates (5% sheep blood) to quantitate viable organisms. The % killing is expressed as [(CFU control-CFU test)/CFU control]×100.
(§5) Some of the peptides tested in the previous examples were tested for cross-type protection using the methods described above. […] The peptide tested and serotype against which it was tested is indicated.

GAS M type M3 = assay: Opsonophagocytosis / bactericidal activity in vitro, GAS M type M3; type: cell-based, Group A streptococci; conditions: for reduction of M3 type bacteria: in vitro versus control; for % CFU reduction: in vitro, GAS M type M3
Method: as §4, §5

GAS = assay: Opsonophagocytosis assay in vitro with sera of immunized mice; type: cell-based, Group A streptococci; conditions: human whole blood, 3 hours
Method: as §4
Each of the sera tested positive in the assay and was able to reduce the amount of viable bacteria relative to controls.

GAS M type M12 = assay: Opsonophagocytosis / bactericidal activity in vitro, GAS M type M12; type: cell-based, Group A streptococci
Method: as §4, §5

GAS M type M1 [3] = assay: Opsonophagocytosis / bactericidal activity in vitro, GAS M type M1; type: cell-based, Group A streptococci
Method: as §4, §5

GAS M type M1 [4] = assay: Reduction of colonization in mice, colonizing GAS M type M1; type: in vivo

Row | Sequence | ELISA (elicitation of antibodies) [2] | immunoreactivity by ELISA using rabbit sera prepared against whole M protein [1] | further results
1 | CNGDGNPREVIEDLAANNPAME [Peptide M1-4] | no |  | immunoreactivity of peptide with anti-M protein rabbit sera (ELISA) [1]: highest reactivity
2 | CLEDLGQKFERLKQRSELYLQ [Peptide M12-3] | no | confirmed | 
3 | CGEFPRHVKLKNEIENLLDQV [Peptide M3-2] | yes |  | Reduction of colonization (streptococci (GAS)): 67%; cross-type protection in vivo (GAS M type M3 or M43; mice colonized by M3 or M43): capable in vivo of cross-type protection; % CFU reduction (GAS M type M3 or M43; mice, colonizing GAS M type M3 or M43, reduction overall): 67% (P < 0.30); reduction of M43 type bacteria (GAS M type M43): significantly reduce; % CFU reduction (GAS M type M43): 60-80%; immunoreactivity of peptide with anti-M protein rabbit sera (ELISA) [1]: highest reactivity; reduction of M3 type bacteria (GAS M type M3): significantly reduce; % CFU reduction (GAS M type M3): 90-95%; Opsono (in vitro) (GAS): yes
4 | CAEKQRLEDLGQKFERLKQRS [Peptide M12-2] | yes (weak) | confirmed | 
5 | CDHSDLVAEKQRLEDLGQKFE [Peptide M12-1] | yes |  | immunoreactivity of peptide with anti-M protein rabbit sera (ELISA) [1]: highest reactivity; % CFU reduction (GAS M type M12): 70-80%; Opsono (in vitro) (GAS): yes
6 | CDARSVNGEFPRHVKLKNEIE [Peptide M3-1] | yes | confirmed | Reduction of colonization (streptococci (GAS)): 87%; reduction of M43 type bacteria (GAS M type M43): significantly reduce; % CFU reduction (GAS M type M43): 80-90%; reduction of M3 type bacteria (GAS M type M3): significantly reduce; % CFU reduction (GAS M type M3): 70-90%; Opsono (in vitro) (GAS): opsonophagocytize bacteria more effectively and yes
7 | CLDQVTQLYNKHNSNYQQYSA [Peptide M3-4] | no | confirmed | 
8 | CIRLRHENKDLKARLENAMEV [Peptide M1-3] | yes | confirmed | % CFU reduction (GAS M type M1 [3]): 80-95%; % CFU reduction (GAS M type M1 [4]): 90% (P < 0.10); Opsono (in vitro) (GAS): yes
9 | CIQNIRLRHENKDLKARLENA [Peptide M1-2] | no | confirmed | 
10 | CRRERDNYLNYLYEKEELEKK [Peptide M59-4] |  | confirmed | 
11 | CDSSRDSSREVTNELTASMWK [Peptide M58-5] |  | confirmed | 
12 | CKKEATKLSEAELYNKIQELEE [st2967-3] |  | confirmed | 
13 | CEEERTFTELPYEARYKAWKSE [Peptide M75-1] |  | confirmed | 
14 | CEAGVSKFWKSKFDAEQNRANE [Peptide M82-3] |  | confirmed | 
15 | CNHQLTVENKKLKTDKEQLTKE [Peptide M18-6] |  | confirmed | 
16 | CAAPLTRATADNKDELIKRAND [Peptide M18-1] |  | confirmed | 
17 | CDENKTLREKQEEYITKIQNE [Peptide M11-3] |  | confirmed | 
18 | CEELKVEREKYLSYADDKEKDPQ [Peptide M4-4] |  | confirmed | 
19 | CQELEEGKAELFDKLEKVEEE [Peptide M73-6] |  | confirmed | 
20 | CRENYRRTLDKFNTEQGKTTR [Peptide M75-5] |  | confirmed | 
21 | CDNQSPAPAPVKKEAKKLNEAE [Peptide M73-5] |  | confirmed | 
22 | CSVKDNEKELHNKIADLEEER [Peptide M89-3] |  | confirmed | 
23 | CLAQVTQLYTKHNSNYQQYNA [Peptide M3-7] |  | confirmed | 
